pIC50: −log10 of the molar value. Structures can show the parent of a compound that is named as a salt. Where two headings read alike, the source gives them in different places.
Assays:
LD1 [1] = test: LDH activity assay with amphiphile, LDH isoenzymes; assay type: biochemical, porcine; conditions: about 10 mM CTAB; FIG. 5
Method: (§1) 3. Beef heart LDH (Sigma Chemical Co., Type III), rabbit muscle LDH (Sigma Chemical Co., Type V) and porcine LDH, LD1, LD2, LD3, LD4 and LD5 in the form of ammonium sulfate suspensions were used for these examples.
(§2) The assay for LDH activity in both the absence and presence of surfactant was conducted as follows. […] The resulting solution contains approximately 5 units/ml. […] To the equilibrated solution […]. of the enzyme solution was added, and the cuvette was rapidly shaken while covering the top of the cuvette with a small piece of Parafilm® and placed back into the spectrophotometer.
(§3) Amphiphile solutions were prepared by weighing out a given amount of amphiphile, e.g., 100 mg, and preparing a stock solution in 30 mM sodium phosphate buffer in 100 ml. volumetric flask. Solutions of lower amphiphile concentration were prepared by making the appropriate dilutions from the stock solution.

LD5 [2] = test: LDH activity assay with amphiphile, LDH isoenzymes; assay type: biochemical, porcine; conditions: even at 10 mM; LD5 from rabbit and hog show almost identical profiles; FIG. 5
Method: as §1, §2, §3

LD1 [3] = biological target: T1, LD1 (Sus scrofa, UniProt P00336); test: Effect of cationic amphiphiles on the activity of LDH isoenzymes (Table 1); assay type: biochemical; conditions: 30 mM sodium phosphate buffer pH 7.4, 25° C.; for pIC50: read-out: Amphiphile conc. Req'd for 50% Inactivation of Specified Isoenzyme (LD1)
Method: as §2, §3
A number of cationic amphiphiles were investigated for specific inactivation of LD1 in the presence of LD5 and these compounds are listed in Table 1.

human LD1 = biological target: T2, human LD1 (Homo sapiens, UniProt P07195); test: LDH assay with human enzyme-containing serum; assay type: biochemical; conditions: 2.5 mM CTAB; pH 7.8; 14% protein
T2 construct: A specific human LDH isoenzyme (obtained from liver homogenate or red blood cell); from tissue; host or cells: human liver homogenate or red blood cell
Method: as §2
(§4) Pooled human serum, kept frozen until ready for use, was raised to pH 11.5 until all LDH activity was destroyed. The pH was then adjusted to 7.4 and the serum was again assayed for LDH activity to ensure that no LDH had been reactivated. A specific human LDH isoenzyme (obtained from liver homogenate or red blood cell) was then added to the pool to give an enzyme concentration of ~100 U/l. The spiked serum samples were refrigerated between uses and respiked when necessary. Fresh serum was prepared weekly.
(§5) 8. The assay method used is the same as described above for Examples 1-12, except that the test samples consisted of 25-30 μl of serum instead of 100 μl of aqueous enzyme solution.

human LD2 = biological target: T3, human LD2 (Homo sapiens, UniProt P00338+P07195); test: LDH assay with human enzyme-containing serum; assay type: biochemical; conditions: 2.5 mM CTAB; pH 7.8; 14% protein
T3 construct: A specific human LDH isoenzyme (obtained from liver homogenate or red blood cell); from tissue; host or cells: human liver homogenate or red blood cell
Method: as §2, §4, §5

human LD4 = biological target: T4, human LD4 (Homo sapiens, UniProt P00338+P07195); test: LDH assay with human enzyme-containing serum; assay type: biochemical
T4 construct: A specific human LDH isoenzyme (obtained from liver homogenate or red blood cell); from tissue; host or cells: human liver homogenate or red blood cell
Method: as §2, §4, §5

human LD5 [4] = biological target: T5, human LD5 (Homo sapiens, UniProt P00338); test: LDH assay with human enzyme-containing serum; assay type: biochemical
T5 construct: A specific human LDH isoenzyme (obtained from liver homogenate or red blood cell); from tissue; host or cells: human liver homogenate or red blood cell
Method: as §2, §4, §5

human LD5 [5] = test: LDH assay with human enzyme-containing serum; assay type: biochemical; conditions: pH 7.4; FIG. 15
Method: as §2, §4, §5

human LD1, LD2 and LD3 = test: LDH assay with human serum sample containing LD1, LD2 and LD3; assay type: biochemical; conditions: CTAB 0.002-0.004 M; 25 μl serum; FIG. 13
Method: as §2, §4, §5

cMDH = biological target: T6, cMDH (Sus scrofa, UniProt P11708); test: Assay for MDH (oxalacetic acid + NADH, 340 nm); assay type: biochemical, porcine
T6 construct: Porcine cMDH and mMDH were used as ammonium sulfate suspensions
Method: (§6) 1. Porcine cMDH and mMDH were used as ammonium sulfate suspensions. Typically, 5 μl of the enzyme stock solutions were diluted to 10 ml with 30 mM phosphate buffer, pH 7.4, prior to use. The resulting enzyme solutions were stored in ice water; 100 μl aliquots were withdrawn for assay except where another amount is specified.
(§7) The assay is based on conversion of oxalacetic acid to malate in the presence of NADH and MDH. The assay was made [formula] in 30 mM phosphate buffer, at ambient temperature, with and without appropriate surfactant concentrations, and contained 0.17 mM OAA and 0.13 mM NADH. The reaction was followed by monitoring the decrease in absorbance at 340 nm using either a Beckman 25 or Cary 118 spectrophotometer. The OAA solutions were stored over ice to prevent hydrolysis to pyruvic acid.

mMDH = biological target: T7, mMDH (Sus scrofa, UniProt P00346); test: Assay for MDH (oxalacetic acid + NADH, 340 nm); assay type: biochemical, porcine
T7 construct: Porcine cMDH and mMDH were used as ammonium sulfate suspensions
T7 sequence (P00346 25-338): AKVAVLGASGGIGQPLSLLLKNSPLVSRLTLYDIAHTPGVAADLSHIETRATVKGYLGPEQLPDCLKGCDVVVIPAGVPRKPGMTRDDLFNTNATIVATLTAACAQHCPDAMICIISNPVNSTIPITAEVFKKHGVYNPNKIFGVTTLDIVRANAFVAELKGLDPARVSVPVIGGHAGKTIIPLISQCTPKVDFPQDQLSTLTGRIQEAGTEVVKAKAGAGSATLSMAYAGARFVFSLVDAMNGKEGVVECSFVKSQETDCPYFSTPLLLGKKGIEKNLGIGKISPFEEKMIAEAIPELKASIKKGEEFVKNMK
Method: as §6, §7

[6] = system: isoenzymes of creatinine phosphokinase (CPK); test: Conventional coupled CPK assay (hexokinase, glucose-6-phosphate dehydrogenase); assay type: biochemical; conditions: conventional assay with coupled reactions, hexokinase and glucose-6-phosphate dehydrogenase
Description: Of course, the particular amphiphile used and the concentration at which it is used will depend upon the particular isoenzyme being assayed. Not every amphiphile will have a discriminatory effect on the activity of isoenzymes in each isoenzyme system.

LD1 and LD5 = test: Screening of amphiphiles for ability to discriminate between LD1 and LD5; conditions: for Effectiveness (LDH isoenzyme inhibition specificity, LD1 vs LD5): range of amphiphile concentrations, relative activity vs buffer
Method: A series of solutions was prepared covering a range of concentrations for each amphiphile to be tested. The activities of both LD1 and LD5 were determined in the presence of the various concentrations of each amphiphile and compared with enzyme activities in buffer (relative activity).
Enzyme activity in the presence and absence of amphiphile was measured by the following procedure: Stock solutions of NADH (4 mM) and pyruvate (40 mM) were prepared daily in 30 mM sodium phosphate buffer, pH 7.4. Enzyme solutions were prepared daily by withdrawing 5 μl of the stock enzyme solutions with a Hamilton syringe and diluting to 5 ml with 30 mM sodium phosphate buffer. (The resulting solution contains approximately 5 U of enzyme/ml.) The enzyme assay was run by pipetting 2.7 ml of buffer or buffer surfactant solution into a 10 mm path length quartz cuvette, and 100 μl each of NADH and pyruvate stock solutions were added. […] Enzyme solution was added with good mixing; the absorbance decrease at 340 nm was measured as a function of time. The rate of the reaction was determined by measuring the slope of the initial absorbance decrease, i.e., within the first 50 seconds of the reaction.

LD5 [7] = biological target: LD5 (Sus scrofa, UniProt P00339); test: LDH activity assay with amphiphile, LDH isoenzymes; assay type: biochemical, porcine; set-up: LD5 from two different species, i.e., rabbit muscle and hog muscle; from tissue; host or cells: hog muscle
Method: as §1, §2, §3

LD2 = biological target: T8, LD2 (Sus scrofa, UniProt P00336+P00339); test: LDH activity assay with amphiphile, LDH isoenzymes; assay type: biochemical, porcine
T8 construct: porcine LDH, LD1, LD2, LD3, LD4 and LD5 in the form of ammonium sulfate suspensions
Method: as §1, §2, §3

LD3 = biological target: T9, LD3 (Sus scrofa, UniProt P00336+P00339); test: LDH activity assay with amphiphile, LDH isoenzymes; assay type: biochemical, porcine
T9 construct: porcine LDH, LD1, LD2, LD3, LD4 and LD5 in the form of ammonium sulfate suspensions
Method: as §1, §2, §3

LD4 = biological target: T10, LD4 (Sus scrofa, UniProt P00336+P00339); test: LDH activity assay with amphiphile, LDH isoenzymes; assay type: biochemical, porcine
T10 construct: porcine LDH, LD1, LD2, LD3, LD4 and LD5 in the form of ammonium sulfate suspensions
Method: as §1, §2, §3

LD1 [8] = biological target: T1, LD1; test: LDH activity assay with amphiphile, LDH isoenzymes; assay type: biochemical, porcine; set-up: porcine LDH, LD1, LD2, LD3, LD4 and LD5 in the form of ammonium sulfate suspensions
Method: as §1, §2, §3

[9] = biological target: T11, LDH isoenzymes (LD5 in the presence of LD1) (Oryctolagus cuniculus, UniProt P13491); test: Anionic amphiphiles tested for specific interaction with LDH isoenzymes (Table 2); assay type: biochemical
T11 construct: LD1 (LDHB tetramer) only as comparison
Method: as §2, §3
A number of anionic amphiphiles were investigated for specific inactivation of LD5 in the presence of LD1 and these compounds are listed in Table 2.

[10] = 2.5 mM CTAB, pH 7.8, 14% protein
[11] = rate measurements after 2 minutes, FIG. 18

## CCCCCCCCCCCCCCCC[N+](C)(C)C.[Br-] [CTAB, hexadecyltrimethylammonium bromide]
LD1 [1]
  LD1 susceptibility to inactivation at high surfactant concentrations: less susceptible to inactivation
LD5 [2]
  control LD5 activity lost in CTAB solutions: No more than 30%
LD1 [3]
  pIC50: 3.05
Human LD1
  human LD1 activity: completely inactivated
Human LD2
  human LD2 activity: completely inactivated
Human LD4; [10]
  human LD4 activity: fully active
Human LD4; 3 mM CTAB in 14% protein, pH 7.75-7.85, 30 μl serum
  human LD4 activity: completely inactivated
Human LD5 [4]; [10]
  human LD5 activity: fully active
Human LD5 [4]; CTAB 0.002-0.004 M, 25 μl serum, FIG. 13
  retained activity of human LD5: at least 60%
Human LD5 [4]; read-out: human LD5 activity
  activity at 3000 µM: > 100%
Human LD5 [5]
  discrimination between human LD5 and LD4: inadequate discrimination
Human LD1, LD2 and LD3
  activity of human serum sample containing LD1, LD2 and LD3: completely inactivated
cMDH; 0.3 mM CTAB, initial reaction rates, FIG. 16
  cMDH activity: essentially completely inactivated
cMDH; [11]
  cMDH inactivation with increased exposure time: more effectively inactivates cMDH
mMDH; pH 7.4, 0.3 mM CTAB, initial reaction rates, FIG. 16, read-out: mMDH activity relative to a buffer control
  remaining activity at 300 µM: 100%
mMDH; [11]
  effect on mMDH with increased exposure time: no effect
[6]
  discriminatory effect on the activities of the isoenzymes of CPK: do not appear to have any discriminatory effect
LD1 and LD5
  discrimination of LDH isoenzymes: excellent discriminators
LD5 [7]; pH 7.4, read-out: activity of LD5 in CTAB, % of the buffer value
  activity at 275 µM: 90 to 95%

## CCCCCCCCCCCCCCCCCCNC(=O)CC(C(=O)O)S(=O)(=O)O (stereo not shown) [Disodium N-octadecylsulfosuccinamate]
LD1 and LD5
  Effectiveness (LDH isoenzyme inhibition specificity, LD1 vs LD5): ++

## CCCCCCCCCCCCN [Dodecylamine . HCl]
LD1 [3]
  pIC50: 1.89
LD1 and LD5
  Effectiveness (LDH isoenzyme inhibition specificity, LD1 vs LD5): ++

## CCCCCCCCCCCC[N+](C)(C)C.[Br-] [Dodecyltrimethylammonium bromide]
LD1 [3]
  pIC50: 2.00
LD1 and LD5
  Effectiveness (LDH isoenzyme inhibition specificity, LD1 vs LD5): -

## CC[n+]1ccccc1.[Br-] [N-Ethylpyridinium bromide]
LD1 [3]
  Amphiphile conc. Req'd for 50% Inactivation of Specified Isoenzyme (LD1): no effect

## CCCCCCCCCCCCCCCC(=O)NCCC[N+](C)(C)CCO.[Cl-] [N-β-hydroxyethyl-N,N-dimethyl-N-3-palmitamidopropylammonium chloride]
LD2; FIG. 11
  effect on LD2 activity: inactivated mostly
LD3; FIG. 11
  effect on LD3 activity: inactivated mostly
LD4; FIG. 11
  retention of LD4 activity: ~ 60%
LD1 and LD5
  Effectiveness (LDH isoenzyme inhibition specificity, LD1 vs LD5): ++
LD1 [8]; FIG. 11
  effect on LD1 activity: inactivated mostly
LD5 [7]; FIG. 11
  retention of LD5 activity: 90%

## CCCCCCCCC[N+](C)(C)C [Nonatrimethylammonium bromide]
LD1 [3]
  pIC50: 3.46
LD1 and LD5
  Effectiveness (LDH isoenzyme inhibition specificity, LD1 vs LD5): -

## CCCCCCCCCCCCOS(=O)(=O)[O-].[Na+] [SDS, sodium dodecylsulfate]
LD2; pH 7.4, read-out: LD2 activity
  activity at 3500 µM: 0%
LD2; pH 7.4, read-out: LD2 activity remaining
  remaining activity at 1500 µM: 65%
LD3; pH 7.4, read-out: LD3 activity remaining
  remaining activity at 1500 µM: 50%
LD4; 1.5 mM SDS, FIG. 9
  LD4 activity: nil
[9]
  Interaction (specific inactivation of LD5 in the presence of LD1): useful positive results
[9]; listed as sodium dodecylsulfate
  Interaction (specific inactivation of LD5 in the presence of LD1): specific
LD1 and LD5
  Effectiveness (LDH isoenzyme inhibition specificity, LD1 vs LD5): ++
LD1 [8]; pH 7.4, read-out: LD1 activity remaining
  remaining activity at 1500 µM: 95%
LD1 [8]; pH 7.4, read-out: LD1 activity, % of buffer control
  remaining activity at 3500 µM: 78%
LD5 [7]; 1.5 mM SDS, FIG. 9
  LD5 activity: nil

## CCCCCCCC/C=C\CCCCCCCC(=O)N(C)CCS(=O)(=O)O [Sodium N-methyl-N-oleoyl taurate]
LD1 and LD5
  Effectiveness (LDH isoenzyme inhibition specificity, LD1 vs LD5): 0

## CCCCOS(=O)(=O)[O-].[Na+] [Sodium butyl sulfate]
LD1 and LD5
  Effectiveness (LDH isoenzyme inhibition specificity, LD1 vs LD5): 0

## C[C@H](CCC(=O)O)[C@H]1CC[C@H]2[C@@H]3C(=O)C[C@@H]4CC(=O)CC[C@]4(C)[C@H]3CC(=O)[C@]12C [Sodium dehydrocholate]
LD1 and LD5
  Effectiveness (LDH isoenzyme inhibition specificity, LD1 vs LD5): 0

— patent US4250255A, “Assay method for isoenzyme activity” (Eastman Kodak Company, priority 1977, dated 1981)
